These results are taken from PubChem BioAssay AID1996.

As a reminder, the solubility (kinetic) is the concentration staying in solution when a stock, usually in DMSO, is diluted into the medium.

≈ marks a conversion by molar mass, not a printed value.

The conditions of the data set: buffer; pH 7.4; 200.0 µM.
`Cc1ccnc(N2CCC(C(=O)Nc3ccc4c(c3)OCCO4)CC2)n1` returned a kinetic solubility of 13.6 µg/mL (≈ 38.4 µM).
In the case of `CC(=O)c1ccc(NC(=S)NCCCN2CCOCC2)cc1`, the kinetic solubility is above 48.2 µg/mL.
With `O=C(COC(=O)/C=C/c1cccc(F)c1)NC(=O)NC1CCCC1` the figure was 4.9 µg/mL (≈ 14.7 µM); with `Cc1ccc(-c2nc(C#N)c(NCCCn3ccnc3)o2)cc1`, 0.9 µg/mL (≈ 2.93 µM).
The molecule `COc1ccc(N2CCN(C(=O)c3cccc(S(=O)(=O)N4CCc5ccccc54)c3)CC2)cc1` gave a kinetic solubility of 7.1 µg/mL (≈ 14.9 µM).
Take `O=C(O)/C=C\C(=O)Nc1cc(O)ccc1[N+](=O)[O-]`: the kinetic solubility was above 37.8 µg/mL.
For the molecule `Cc1cccc(NS(=O)(=O)c2ccc3[nH]c(=O)oc3c2)c1C`, the solubility (kinetic) came out at 41.9 µg/mL (≈ 132 µM).
In turn, `CN1CCN(C(=O)c2cc([N+](=O)[O-])ccc2Cl)CC1` had a solubility (kinetic) above 42.6 µg/mL.
With `COc1ccc2[nH]cc(CCNC(=S)NC3CCCC3)c2c1`, the solubility (kinetic) is 43.6 µg/mL (≈ 137 µM).
In the case of `COC(=O)c1cccc(NC(=O)CCc2c(C)noc2C)c1`, the solubility (kinetic) was above 45.3 µg/mL.
In the case of `Cc1cnc(C(=O)OCc2cc(=O)n3c(C)cccc3n2)cn1`, the solubility (kinetic) was above 46.5 µg/mL.
As for `O=[N+]([O-])c1cc([N+](=O)[O-])c2nonc2c1Nc1ccccc1O`, the kinetic solubility was above 47.6 µg/mL.
`O=C(O)CC1(CC(=O)NCc2ccc(C(F)(F)F)cc2)CCCCC1` registered a kinetic solubility above 53.6 µg/mL.
Molecule `CC1CC(=O)Nc2cc([N+](=O)[O-])ccc2N1` (configuration not stated) gave a solubility (kinetic) above 33.2 µg/mL.
`CC(=O)c1ccc(S(=O)(=O)N2CCN(C(C)C(=O)N(C)Cc3ccccc3)CC2)cc1` (configuration not stated) had a solubility (kinetic) of 44 µg/mL (≈ 99.2 µM).
`Cc1ccc(C(=O)NC(=S)N(C)C2CCCCC2)cc1`: the kinetic solubility was found to be 9.9 µg/mL (≈ 34.1 µM). This solubility kinetic lies about 4.4-fold lower than the previous one.
As to `CC(C(=O)N1CCCC1)N1CCN(S(=O)(=O)c2ccccc2)CC1` (configuration not stated), the solubility (kinetic) worked out at 47.1 µg/mL (≈ 134 µM). Against the preceding molecule, the solubility kinetic is about 4.8-fold higher.
Take `CC1(C)OC(=O)C(=CNC(CO)C(=O)O)C(=O)O1` (configuration not stated): the solubility (kinetic) was above 38.9 µg/mL.
On to `Cn1c2ccc(F)cc2c2ncn(CC3CCCO3)c(=O)c21` (configuration not stated), for which the solubility (kinetic) came to 4 µg/mL (≈ 13.3 µM).
With `COc1ccccc1NC(=O)C(C)N(C)CCOc1ccccc1` (configuration not stated) the figure was 23.1 µg/mL (≈ 70.3 µM); with `Cc1ncc([N+](=O)[O-])n1CC(=O)Nc1ccc(Br)cc1`, 9.9 µg/mL (≈ 29.2 µM).
`CC(C)COc1nc2ccccc2nc1N1CCN(C)CC1` displayed a solubility (kinetic) of 33.9 µg/mL (≈ 113 µM).
`CC(NC(=O)c1ccccc1N)c1ccccc1` (configuration not stated) had a kinetic solubility above 36 µg/mL.
With `Cc1cc(C)c(C#N)c(N2CCN(c3ccccc3)CC2)n1` the figure was 3.8 µg/mL (≈ 13 µM).
`COc1ccc(/C=C/C(=O)N2CCCC2)cc1OC` gave a solubility (kinetic) above 39.2 µg/mL.
Consider `O=[N+]([O-])c1ccc(CS(=O)(=O)c2ccc(Cl)cc2)cc1`, for which the solubility (kinetic) is 3.4 µg/mL (≈ 10.9 µM).
To `O=C(O)C1CCc2sc3[nH]c(=S)n(-c4ccccc4)c(=O)c3c21` (configuration not stated) belongs above 51.7 µg/mL; to `C[n+]1ccccc1/C=N/O.[Cl-]`, above 25.9 µg/mL; to `O=C(Nc1ncc(Cc2cccc(Cl)c2Cl)s1)C1CCCO1` (configuration not stated), 1.9 µg/mL (≈ 5.32 µM).
To `c1coc(-c2ccnc(-n3cccc3)n2)c1` belongs 1.6 µg/mL (≈ 7.57 µM).
`COCC(C)NC(=O)COc1nncc2ccccc12` (configuration not stated) yielded a solubility (kinetic) above 41.3 µg/mL.
In the case of `Cc1ccc(C(=O)NCCCN2CCOCC2)cc1Cl`, the solubility (kinetic) came to 42.5 µg/mL (≈ 143 µM).
In turn, `CC(=O)Nc1cc2c3c(c1)CCN3C(=O)CC2` had a kinetic solubility above 34.5 µg/mL.
Consider `CCOC(=O)C1=C(CC)Nc2ccccc2N=C1NC(=O)c1cc(S(=O)(=O)N2CCOCC2)ccc1C`, for which the solubility (kinetic) was found to be 50.8 µg/mL (≈ 96.5 µM).
To `Nc1nc(Nc2ccccc2)nc(NCCO)c1[N+](=O)[O-]` belongs 38 µg/mL (≈ 131 µM); to `CC(=O)Nc1cccc(C(=O)OCC(=O)c2ccccc2Cl)c1`, 43 µg/mL (≈ 130 µM); to `CCC1CN(C(=O)NCc2ccccc2)c2ccccc2O1` (configuration not stated), 43.2 µg/mL (≈ 146 µM).
For `CN1CCCNc2nc3ccccc3nc21`, the solubility (kinetic) was above 32.1 µg/mL.
`FC(F)Oc1ccc(-c2c[n+]3c(n2-c2ccccc2)CCCCC3)cc1` yielded a solubility (kinetic) of 50.7 µg/mL.
`O=C(NC1CCCCCC1)C1CCN(S(=O)(=O)c2cnc[nH]2)CC1` came in with a solubility (kinetic) of 50.7 µg/mL (≈ 143 µM).
Consider `COc1ccc(NS(=O)(=O)c2cccc(C(=O)OCC(=O)c3c(N)n(C)c(=O)n(C)c3=O)c2)cc1`, for which the kinetic solubility was determined as 16.4 µg/mL (≈ 32.6 µM).
`Cc1ccnc(SCC(=O)Nc2cccc(S(=O)(=O)N3CCOCC3)c2)n1`: the solubility (kinetic) was above 61.3 µg/mL.
As to `COc1ccc(CNC(=O)c2ccncc2)cc1`, the kinetic solubility is above 36.3 µg/mL.
To `O=C(O)C1C2CCC(O2)C1C(=O)Nc1ccccc1Br` (configuration not stated) belongs above 51 µg/mL; to `CCc1cccc(NS(=O)(=O)c2c(C)[nH]c(=O)[nH]c2=O)c1`, above 46.4 µg/mL; to `CCOc1ccccc1NC(=O)c1csc(C)c1C`, 16.5 µg/mL (≈ 59.9 µM).
In turn, `CCc1cc(=O)[nH]c(SCC(=O)N2CCCC2)n1` had a solubility (kinetic) above 40.1 µg/mL.
To `CCOC(=O)c1cc2c(cn1)[nH]c1ccccc12` belongs 7.5 µg/mL (≈ 31.2 µM); to `CN(C)CCCNCCCNC(=O)/C(=N\O)c1ccccc1`, above 46 µg/mL.
`c1ccc(COCC2CCNCC2)cc1` registered a kinetic solubility above 30.8 µg/mL.
Take `CC(C)(C)c1ccc(Oc2ncccc2NC(=O)c2cccs2)cc1`: the solubility (kinetic) was below 0.4 µg/mL.
With `Cc1cc(C(=O)N2C(C)CCCC2C)no1` (configuration not stated) the figure was above 33.3 µg/mL; with `CC(C(O)c1cc(=O)c(OCc2ccccc2)co1)[N+](=O)[O-]` (configuration not stated), 33.1 µg/mL (≈ 108 µM).
As for `CCC1CCCCN1C(=O)c1ccc([N+](=O)[O-])o1` (configuration not stated), the solubility (kinetic) was above 37.8 µg/mL.
With `CN1CCN(c2ccc(NC(=O)CN3CCOCC3)cc2F)CC1` the figure was above 50.5 µg/mL; with `COc1ccc(N2CC(C(=O)NC3CCSC3=O)CC2=O)cc1` (configuration not stated), above 50.2 µg/mL.
`CCN(CC)C1CCN(c2nc3nonc3nc2NCCOC)C1` (configuration not stated): the solubility (kinetic) came to 46.8 µg/mL (≈ 140 µM).
To `Cc1ccc(CSC2=NCCN2C(=O)c2ccc([N+](=O)[O-])cc2)cc1` belongs 6.3 µg/mL (≈ 17.7 µM).
`O=C(CSc1ccc([N+](=O)[O-])cn1)Nc1ccc(N2CCOCC2)cc1`: the kinetic solubility came out at 0.9 µg/mL (≈ 2.4 µM).
On to `CCOC(=O)N1CCN(S(=O)(=O)c2ccc3[nH]c(=O)oc3c2)CC1`, for which the kinetic solubility was determined as 45.6 µg/mL (≈ 128 µM).
With `CC(C)c1ccc(NC(=O)COC(=O)CC2CCCC2)cc1`, the kinetic solubility was determined as 7.8 µg/mL (≈ 25.7 µM).
For `C=CCSc1nnc(NC(=O)C2=COCCO2)s1`, the solubility (kinetic) was above 42.8 µg/mL.
For `Nc1nc2c([N+](=O)[O-])cccc2s1`, the solubility (kinetic) amounted to 23 µg/mL (≈ 118 µM).
In turn, `CCCn1c(=S)[nH]c2sc3c(c2c1=O)CCCC3` registered a kinetic solubility of 1.4 µg/mL (≈ 4.99 µM).
As to `Cc1ccc(C(=O)N2CCCCC2C(=O)O)o1` (configuration not stated), the kinetic solubility was above 35.6 µg/mL.
As for `Cc1ccc2[nH]c(=S)n(-c3cccnc3)c(=O)c2c1`, the solubility (kinetic) came to 2.8 µg/mL (≈ 10.4 µM).
`O=C(Cc1ccccc1[N+](=O)[O-])NC1CC2CCC1C2` (configuration not stated) showed a solubility (kinetic) above 41.1 µg/mL.
`COc1ccc(NC2CC(=O)N(c3cccc([N+](=O)[O-])c3)C2=O)cc1` (configuration not stated) came in with a kinetic solubility above 51.2 µg/mL.
`Cc1ccc(NS(=O)(=O)c2ccc3c(c2)CCC(=O)N3)cc1` yielded a kinetic solubility above 47.5 µg/mL.
For `O=c1[nH]c(/C=C/c2ccc(Br)cc2)nc2ccccc12`, the solubility (kinetic) was found to be 0.8 µg/mL (≈ 2.45 µM).
Turning to `CN(C)S(=O)(=O)c1ccc(C(=O)OCC2COC(C)(C)O2)cc1` (configuration not stated), the kinetic solubility came to 48.6 µg/mL (≈ 142 µM).
Regarding `CSc1ncccc1C(=O)Nc1ccc2c(c1)OCCO2`, the solubility (kinetic) was determined as 15.7 µg/mL (≈ 51.9 µM).
In the case of `COC(=O)c1cc(NC(=O)CN(C)C2CCS(=O)(=O)C2)cc(C(=O)OC)c1.O=C(O)C(=O)O` (configuration not stated), the solubility (kinetic) was above 73.3 µg/mL.
In turn, `Cc1ccc(CONC(=O)c2ccc(OC(F)F)cc2)cc1` registered a solubility (kinetic) of 9.5 µg/mL (≈ 30.9 µM).
Consider `O=C(CNC(=O)[C@@H]1Cc2ccccc2CN1)NC1CCCC1`, for which the kinetic solubility was above 45.2 µg/mL.
To `Cc1ccc(S(=O)(=O)N2CCN(c3ccc([N+](=O)[O-])cn3)CC2)cc1` belongs below 0.2 µg/mL.
In turn, `O=C(CSC(=S)N1CCOCC1)c1cc2ccccc2oc1=O` yielded a solubility (kinetic) of 7.4 µg/mL (≈ 21.2 µM).
Molecule `CC1CCCC(C)N1C(=O)COC(=O)c1ccco1` (configuration not stated) had a solubility (kinetic) above 39.8 µg/mL.
The molecule `CCN(CC)c1nc(N2CCOCC2)nc2ccccc12.Cl` came in with a kinetic solubility of 42.8 µg/mL.
`CC(=O)Nc1ccc(C(=O)NCCCSc2ccccc2)cc1` showed a kinetic solubility of 5.3 µg/mL (≈ 16.1 µM). Against the preceding molecule, the solubility kinetic is about 8.1-fold lower.
Turning to `Cc1ccccc1C(=O)c1c[nH]c(C(=O)N=CN(C)C)c1`, the solubility (kinetic) was above 42.5 µg/mL.
As for `CCOc1ccc(Nc2cc(C)nc3ccc(C)cc23)cc1`, the kinetic solubility is 40 µg/mL (≈ 137 µM).
`COc1ccnc2c1c(=O)n(Cc1cccc(F)c1)c(=O)n2C` yielded a kinetic solubility of 37.9 µg/mL (≈ 120 µM). The solubility kinetic values of the last two molecules are within 1.5-fold of each other.
In turn, `Cc1cc(C(=O)OCC(=O)NC2CC2)c2ccccc2n1` gave a kinetic solubility above 42.6 µg/mL.
As to `O=[N+]([O-])c1ccccc1-c1ccc(C(=S)N2CCCC2)o1`, the solubility (kinetic) amounted to 9.4 µg/mL (≈ 31.1 µM).
`COc1ccc(NS(=O)(=O)c2cccc(C(=O)Nc3ccccc3C(=O)O)c2)cc1` returned a solubility (kinetic) above 64 µg/mL.
`COc1cccc(S(=O)(=O)NCC(=O)N2CCCCCC2)c1` gave a solubility (kinetic) above 49 µg/mL.
The molecule `CC(C)(C)n1cnnc1Sc1ncccc1[N+](=O)[O-]` returned a solubility (kinetic) above 41.9 µg/mL.
`CCn1c(CNC(=O)c2ccccc2F)cc2ccccc21` yielded a kinetic solubility of 2 µg/mL (≈ 6.75 µM).
Turning to `O=C(O)CSCc1nc2ccccc2[nH]1`, the solubility (kinetic) was determined as 31.7 µg/mL (≈ 143 µM).
Molecule `Cc1cc(C(=O)Nc2ncc(C)s2)c2ccccc2n1` displayed a solubility (kinetic) of 18 µg/mL (≈ 63.5 µM).
In the case of `COCCN(C(=O)c1cc(-c2ccco2)nc2ccccc12)c1c(N)n(Cc2ccccc2)c(=O)[nH]c1=O`, the kinetic solubility is above 76.7 µg/mL.
In the case of `O=C(NCc1ccccc1)NC(=O)c1ccccc1F`, the kinetic solubility is 21.1 µg/mL (≈ 77.5 µM).
Molecule `O=c1c(/C=N/O)coc2ccc(Cl)cc12` registered a kinetic solubility of 8.2 µg/mL (≈ 36.7 µM). Compared with the last molecule, the solubility kinetic is about 2.6-fold lower.
To `CC(=O)Nc1cccc(NC(=O)C2CC(=O)N(CCc3ccc(F)cc3)C2)c1` (configuration not stated) belongs 38.4 µg/mL (≈ 100 µM); to `Cn1c(C2=C(O)CN(Cc3ccccc3)C2=N)nc2ccccc21`, above 47.8 µg/mL.
Molecule `CSc1ccc(C(=O)NCC(c2ccco2)N(C)C)cc1[N+](=O)[O-]` (configuration not stated) returned a kinetic solubility above 52.4 µg/mL.
In turn, `CCN(CC)C(=O)n1c(Cc2ccccc2)nc2ccccc21` displayed a kinetic solubility above 46.1 µg/mL.
Turning to `CCCC(=O)Nc1nnc(SCC(=O)N2CCCCC2)s1`, the solubility (kinetic) is above 49.3 µg/mL.
`O=C1N(Cc2ccccc2)c2ccccc2C12OCCO2`: the kinetic solubility was determined as 28.9 µg/mL (≈ 103 µM).
With `CC(C)(C)OC(=O)NCCC(=O)N/N=C/c1ccc2ncccc2c1` the figure was above 51.4 µg/mL; with `CCOc1ccc(NC(=S)NC(=O)Cc2ccccc2)cc1`, 1.8 µg/mL (≈ 5.73 µM).
